The test concerns the target rBoNT/A LC (Clostridium botulinum, UniProt P0DPI0). It is filed as biochemical.
Chain of rBoNT/A LC (P0DPI0 3-448, added parts left off): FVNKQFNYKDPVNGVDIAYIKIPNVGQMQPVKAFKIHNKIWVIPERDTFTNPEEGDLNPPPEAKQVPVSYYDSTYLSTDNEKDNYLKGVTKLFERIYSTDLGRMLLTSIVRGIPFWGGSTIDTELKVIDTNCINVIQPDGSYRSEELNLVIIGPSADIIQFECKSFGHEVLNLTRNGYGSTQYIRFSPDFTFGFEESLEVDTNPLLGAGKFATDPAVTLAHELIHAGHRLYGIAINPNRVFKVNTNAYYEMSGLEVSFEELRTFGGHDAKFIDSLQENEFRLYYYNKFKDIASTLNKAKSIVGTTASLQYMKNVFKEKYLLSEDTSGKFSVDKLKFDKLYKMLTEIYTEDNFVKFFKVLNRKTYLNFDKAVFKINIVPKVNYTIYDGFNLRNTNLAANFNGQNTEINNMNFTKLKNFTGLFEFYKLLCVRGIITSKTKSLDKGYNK
Consider `O=S(=O)([O-])[O-].[Ni+2]` [NiSO4], for which the “% Activity” value was found to be 55% and the “effect on activity of the rBoNT/A LC” value is listed as “inhibited the LC reaction to various extents”.
In the case of CoCl2, the “% Activity” value came to 90%.
Same read-out and setting: the result for `[Cl][Fe][Cl]` [FeCl2] reads 35%.
In the case of `[Cl-].[Cl-].[Zn+2]` [ZnCl2], the stimulation of activity is given as 5%-10%.
`N[C@@H](CS)C(=O)O` [L-Cysteine]: the “% Activity” value is 20% and the “effect on activity of the rBoNT/A LC” value was “inhibited the activity to various extents”.
As to `O=C(O)CN(CCN(CC(=O)O)CC(=O)O)CC(=O)O` [EDTA], the “% Activity” value is reported as 00% and the “effect on activity of the rBoNT/A LC” value is recorded as “completely inhibited”.
The corresponding values for `N[C@@H](CCC(=O)N[C@@H](CS)C(=O)NCC(=O)O)C(=O)O` [Glutathione, reduced] are 75% and “inhibited the activity to various extents”.
As for `[Ca+2].[Cl-].[Cl-]` [CaCl2], the “% Activity” value is listed as 75%.
As for `[Cl-].[Cl-].[Mg+2]` [MgCl2], the “% Activity” value is recorded as 90%.
For `[Cl][Mn][Cl]` [MnCl2], the “% Activity” value is given as 40% and the “effect on activity of the rBoNT/A LC” value is listed as “inhibited the LC reaction to various extents”.
For `O[C@H](CS)[C@H](O)CS` [Dithiothreitol], the “% Activity” value is listed as 45% and the “effect on activity of the rBoNT/A LC” value is “significantly inhibited”.
For the compound `NC(=O)CI` [Iodoacetamide], the “% Activity” value is 80%.
Consider `O=C(O)c1cc[c]([Hg][Cl])cc1` [p-C1-Mercuribenzoate], for which the “% Activity” value is reported as 00% and the “effect on activity of the rBoNT/A LC” value is listed as “completely abolished”.
Consider `N[C@@H](CCC(=O)N[C@@H](CSN=O)C(=O)NCC(=O)O)C(=O)O` [S-Nitrosoglutathione], for which the “% Activity” value worked out at 55%.
With `O=S(=O)([O-])[O-].[Cu+2]` [CuSO4], the “% Activity” value was determined as 95%.
In the case of `O[C@H](CS)[C@@H](O)CS` [Dithioerythreitol], the “% Activity” value was determined as 60% and the “effect on activity of the rBoNT/A LC” value is “inhibited the activity to various extents”.
As for `[Cl][Hg][Cl]` [Mercuric chloride], the “% Activity” value was determined as 00% and the “effect on activity of the rBoNT/A LC” value is “completely abolished”.
The corresponding values for `OCCS` [β-Mercaptoethanol] are 120% and “stimulated the activity”.

(Values after patent publication US8153397B2 (priority 1993, dated 2012).)
